Results as given in patent US20090030033A1, “Novel Compounds 894” (AstraZeneca AB, priority 2007, published 2009).
Where a name gives a salt, the structure may show the parent alone.

These molecules were tested against T1, human GlyT1b (Homo sapiens, UniProt P48067) (assay: [3H]Glycine Uptake Assay (SPA) in hGlyT1b/CHO cells). Settings: compounds of Formula Ia, read at 2 h.
T1 construct: expressed in transfected cells
T1 sequence (P48067 1-652 isoform P48067-3): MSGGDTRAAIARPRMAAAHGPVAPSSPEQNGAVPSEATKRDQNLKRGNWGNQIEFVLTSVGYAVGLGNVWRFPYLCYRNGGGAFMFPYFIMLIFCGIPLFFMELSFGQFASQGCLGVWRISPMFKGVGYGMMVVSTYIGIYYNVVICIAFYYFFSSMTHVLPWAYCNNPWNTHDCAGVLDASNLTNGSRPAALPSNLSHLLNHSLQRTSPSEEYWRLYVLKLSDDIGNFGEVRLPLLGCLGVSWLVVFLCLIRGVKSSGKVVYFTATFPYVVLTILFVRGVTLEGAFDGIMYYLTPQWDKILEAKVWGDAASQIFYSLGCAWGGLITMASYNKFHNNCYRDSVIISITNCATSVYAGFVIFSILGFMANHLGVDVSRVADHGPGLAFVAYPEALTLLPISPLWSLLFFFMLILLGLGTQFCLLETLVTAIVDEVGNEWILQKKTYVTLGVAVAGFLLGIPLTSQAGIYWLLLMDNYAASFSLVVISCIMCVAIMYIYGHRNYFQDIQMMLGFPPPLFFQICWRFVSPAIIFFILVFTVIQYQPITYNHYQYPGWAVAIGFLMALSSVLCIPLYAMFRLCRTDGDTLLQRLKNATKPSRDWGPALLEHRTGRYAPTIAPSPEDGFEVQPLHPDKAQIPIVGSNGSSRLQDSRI
Format: cell-based
Experimental: The activity and usefulness of the compounds can be assessed in assays known to those skilled in the art. […] The potency was measured in the [3H]Glycine Uptake Assay substantially as described below.
[^3H]Glycine Uptake Assay
[^3H]Glycine: PerkinElmer (NET-004, [2-^3H]Glycine, 53.3 Ci/mmol, 1 mCi/mL)
Preparation of recombinant human GlyT1-CHO cells (hGlyT1-CHO). […] CHO-K1 cells (ATCC) were transfected with the recombinant vector containing GlyT1b using Lipofectamine 2000 (Invitrogen) and cultured in Ham's/F12 media supplemented with 10% fetal bovine serum, 2 mM L-glutamine at 37° C., 5% CO2, 90% humidity. Twenty-four hours after transfection, cells were diluted and switched to media containing 500 μg/ml hygromycin B. Antibiotic resistant cells were obtained after 21 days of culture in the presence of hygromycin B. Clonal stable cell lines were isolated by FACS single cell deposition into 96-well plates.
Cell culture: Recombinant hGlyT1-CHO cells were cultured in cell culture medium (Ham's/F12, containing 10% FBS, 2 mM L-glutamine and 500 μg/ml hygromycin B in 175 cm^2 flasks until near confluence prior to use in assay.
Cell suspension: Cell medium in a cell culture flask containing near confluent cells was removed and 5 ml of cell stripper was added to submerge all cells on the surface of the culture flask. Cell stripper was removed immediately and the flask incubated in a 37° C. incubator for ˜5 min. Cells were shaken loose and suspended in 5 ml of PBS. After splitting cells to initiate a new flask(s), the cells remaining were collected by centrifugation, counted, and resuspended in assay buffer to a density of ˜2 million/mL. The cell suspension was kept at room temperature before use.
SPA and isotope mixture: WGA PTV beads were suspended in assay buffer (2 mg/ml) containing 60 nM [^3H]Glycine and 20 μM unlabeled glycine and the suspension was kept at room temperature before assay.
Assay of glycine uptake: To the wells of an OptiPlate, 2 μl DMSO containing a test compound was spotted. This was followed by addition of 98 μl of cell suspension (˜1 million/ml final). After incubating cells with compound for ˜15 min, 100 μl of the SPA (200 μg/well final) and isotope mixture (30 nM isotope with 10 μM cold glycine, final) was added to initiate the glycine uptake. At 2 h, the plate was read on a TopCount to quantify SPA counts.

| IC50 | Compound |
| --- | --- |
| 198 nM | O=C(NC(c1ccccc1)C12CCC(CC1)CN2)c1cccc(C(F)(F)F)c1Cl (single isomer, unassigned) [drawing 103, N-(2-azabicyclo[2.2.2]octan-1-yl(phenyl)methyl)-2-chloro-3-(trifluoromethyl)benzamide] |
| 258 nM | O=C(NC(c1ccccc1)C12CCC(CC1)CN2)c1cccc(C(F)(F)F)c1Cl (stereo not shown) [N-(2-azabicyclo[2.2.2]octan-1-yl(phenyl)methyl)-2-chloro-3-(trifluoromethyl)benzamide] |
| 67.6 nM | Cc1c(C(=O)NC(c2ccccc2)C23CCC(CC2)CN3)cccc1C(F)(F)F (single isomer, unassigned) [N-(2-azabicyclo[2.2.2]octan-1-yl(phenyl)methyl)-2-methyl-3-(trifluoromethyl)benzamide] |
| 99.7 nM | O=C(NC(c1ccccc1)C12CCC(CC1)CN2)c1cccc(Cl)c1Cl (single isomer, unassigned) [N-(2-azabicyclo[2.2.2]octan-1-yl(phenyl)methyl)-2,3-dichlorobenzamide] |
| 455 nM | O=C(NC(c1ccccc1)C12CCC(CC1)CN2)c1cccc(C(F)(F)F)c1Cl (single isomer, unassigned) [drawing 102, N-(2-azabicyclo[2.2.2]octan-1-yl(phenyl)methyl)-2-chloro-3-(trifluoromethyl)benzamide] |

Same assay, conditions: compounds of Formula Ib, read at 2 h

| IC50 | Compound |
| --- | --- |
| 2.3 nM | Cc1cccc(Cl)c1C(=O)NC(c1ccccc1)C12CCC(CC1)CN2C (stereo not shown) [2-chloro-6-methyl-N-((2-methyl-2-azabicyclo[2.2.2]octan-1-yl)(phenyl)methyl)benzamide] |
| 8.45 nM | CN1CC2CCC1(C(NC(=O)c1ccc(F)cc1Cl)c1ccccc1)CC2 (stereo not shown) [drawing 37, 2-chloro-4-fluoro-N-((2-methyl-2-azabicyclo[2.2.2]octan-1-yl)(phenyl)methyl)benzamide] |
| 336 nM | CCOc1ccccc1C(=O)N[C@H](c1ccccc1)C12CCC(CC1)CN2C [(R)-2-ethoxy-N-((2-methyl-2-azabicyclo[2.2.2]octan-1-yl)(phenyl)methyl)benzamide,citric acid salt] |
| 2.95 nM | CSc1ccccc1C(=O)NC(c1ccccc1)C12CCC(CC1)CN2C (stereo not shown) [N-((2-methyl-2-azabicyclo[2.2.2]octan-1-yl)(phenyl)methyl)-2-(methylthio)benzamide] |
| 6.45 nM | CN1CC2CCC1(C(NC(=O)c1ccc(Cl)cc1Cl)c1ccccc1)CC2 (stereo not shown) [2,4-dichloro-N-((2-methyl-2-azabicyclo[2.2.2]octan-1-yl)(phenyl)methyl)benzamide] |
| 86.2 nM | CN1CC2CCC1(C(NC(=O)c1cc(C(F)(F)F)ccc1C(F)(F)F)c1ccccc1)CC2 (stereo not shown) [N-((2-methyl-2-azabicyclo[2.2.2]octan-1-yl)(phenyl)methyl)-2,5-bis(trifluoromethyl)benzamide] |
| 1.34 nM | Cc1cccc(Br)c1C(=O)NC(c1ccccc1)C12CCC(CC1)CN2C (stereo not shown) [2-bromo-6-methyl-N-((2-methyl-2-azabicyclo[2.2.2]octan-1-yl)(phenyl)methyl)benzamide] |
| 2.6 nM | Cc1c(F)cccc1C(=O)NC(c1ccccc1)C12CCC(CC1)CN2C (stereo not shown) [3-fluoro-2-methyl-N-((2-methyl-2-azabicyclo[2.2.2]octan-1-yl)(phenyl)methyl)benzamide] |
| 65 nM | CN1CC2CCC1(C(NC(=O)c1c(F)cccc1C(F)(F)F)c1ccccc1)CC2 (stereo not shown) [2-fluoro-N-((2-methyl-2-azabicyclo[2.2.2]octan-1-yl)(phenyl)methyl)-6-(trifluoromethyl)benzamide] |
| 25.8 nM | CN1CC2CCC1(C(NC(=O)c1cccc(F)c1Br)c1ccccc1)CC2 (stereo not shown) [2-bromo-3-fluoro-N-((2-methyl-2-azabicyclo[2.2.2]octan-1-yl)(phenyl)methyl)benzamide] |
| 65.1 nM | CN1CC2CCC1(C(NC(=O)c1ccccc1Cl)c1ccccc1)CC2 (stereo not shown) [2-chloro-N-((2-methyl-2-azabicyclo[2.2.2]octan-1-yl)(phenyl)methyl)benzamide] |
| 13.6 nM | CN1CC2CCC1(C(NC(=O)c1ccccc1OC(F)(F)F)c1ccccc1)CC2 (stereo not shown) [N-((2-methyl-2-azabicyclo[2.2.2]octan-1-yl)(phenyl)methyl)-2-(trifluoromethoxy)benzamide] |
| 12 nM | CN1CC2CCC1(C(NC(=O)c1cccc(F)c1Cl)c1ccccc1)CC2 (stereo not shown) [2-chloro-3-fluoro-N-((2-methyl-2-azabicyclo[2.2.2]octan-1-yl)(phenyl)methyl)benzamide] |
| 4.74 nM | COc1cccc(Cl)c1C(=O)N[C@H](c1ccccc1)C12CCC(CC1)CN2C [(R)-2-chloro-6-methoxy-N-((2-methyl-2-azabicyclo[2.2.2]octan-1-yl)(phenyl)methyl)benzamide,citric acid salt] |
| 10.5 nM | CN1CC2CCC1(C(NC(=O)c1ccccc1Br)c1ccccc1)CC2 (stereo not shown) [2-bromo-N-((2-methyl-2-azabicyclo[2.2.2]octan-1-yl)(phenyl)methyl)benzamide] |
| 32.7 nM | COc1ccc(Cl)c(C(=O)NC(c2ccccc2)C23CCC(CC2)CN3C)c1 (stereo not shown) [2-chloro-5-methoxy-N-((2-methyl-2-azabicyclo[2.2.2]octan-1-yl)(phenyl)methyl)benzamide] |
| 0.965 nM | CCc1ccccc1C(=O)N[C@H](c1ccccc1)C12CCC(CC1)CN2C [(R)-2-ethyl-N-((2-methyl-2-azabicyclo[2.2.2]octan-1-yl)(phenyl)methyl)benzamide,citric acid salt] |
| 12.1 nM | CN1CC2CCC1(C(NC(=O)c1c(Cl)cccc1Br)c1ccccc1)CC2 (stereo not shown) [2-bromo-6-chloro-N-((2-methyl-2-azabicyclo[2.2.2]octan-1-yl)(phenyl)methyl)benzamide] |
| 49.6 nM | CN1CC2CCC1([C@H](NC(=O)c1ccccc1C(F)(F)F)c1ccccc1)CC2 [(R)-N-((2-methyl-2-azabicyclo[2.2.2]octan-1-yl)(phenyl)methyl)-2-(trifluoromethyl)benzamide,citric acid salt] |
| < 2.34 nM | Cc1c(C(=O)NC(c2ccccc2)C23CCC(CC2)CN3C)cccc1C(F)(F)F (stereo not shown) [2-methyl-N-((2-methyl-2-azabicyclo[2.2.2]octan-1-yl)(phenyl)methyl)-3-(trifluoromethyl)benzamide] |
| 92 nM | CN1CC2CCC1(C(NC(=O)c1cccc(C(F)(F)F)c1F)c1ccccc1)CC2 (stereo not shown) [2-fluoro-N-((2-methyl-2-azabicyclo[2.2.2]octan-1-yl)(phenyl)methyl)-3-(trifluoromethyl)benzamide] |
| 7.71 nM | CN1CC2CCC1(C(NC(=O)c1ccc(F)cc1Cl)c1ccccc1)CC2 [drawing 58, (R)-2-chloro-4-fluoro-N-((2-methyl-2-azabicyclo[2.2.2]octan-1-yl)(phenyl)methyl)benzamide,citric acid salt] |
| 5.9 nM | CN1CC2CCC1([C@H](NC(=O)c1cccc(F)c1Cl)c1ccccc1)CC2 [(R)-2-chloro-3-fluoro-N-((2-methyl-2-azabicyclo[2.2.2]octan-1-yl)(phenyl)methyl)benzamide,citric acid salt] |
| 11.1 nM | CN1CC2CCC1([C@H](NC(=O)c1ccc(Cl)cc1Cl)c1ccccc1)CC2 [(R)-2,4-dichloro-N-((2-methyl-2-azabicyclo[2.2.2]octan-1-yl)(phenyl)methyl)benzamide,citric acid salt] |
| 3.48 nM | Cc1ccccc1C(=O)NC(c1ccccc1)C12CCC(CC1)CN2C (stereo not shown) [2-methyl-N-((2-methyl-2-azabicyclo[2.2.2]octan-1-yl)(phenyl)methyl)benzamide] |
| 3.15 nM | COc1cccc(Cl)c1C(=O)NC(c1ccccc1)C12CCC(CC1)CN2C (stereo not shown) [2-chloro-6-methoxy-N-((2-methyl-2-azabicyclo[2.2.2]octan-1-yl)(phenyl)methyl)benzamide] |
